Reference: ChEMBL document CHEMBL1201862, “PubChem BioAssay data set” (2004)
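These data come from cells grown in 96-well plates and exposed to compound for 48 hours at five concentrations. GI50: concentration for 50% inhibition of growth.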 Active and inactive are the calls of the source. No stated cut-off is given here; in the data, active = GI50 up to about 1.1 µM and inactive = higher.

Experiments:
Experiment in all cases: inhibition of tumour cell growth, NCI panel, 48 h
[1] = system: UACC-62
[2] = system: K562
[3] = system: 786-0
[4] = system: TK-10
[5] = system: RXF 393
[6] = system: SF-295
[7] = system: SK-MEL-2
[8] = system: SN12C
[9] = system: NCI-H522
[10] = system: RPMI-8226
[11] = system: U-251
[12] = system: MDA-MB-435
[13] = system: ACHN
[14] = system: UO-31
[15] = system: SR
[16] = system: MCF7
[17] = system: HCC 2998
[18] = system: HOP-92
[19] = system: IGROV-1
[20] = system: HL-60
[21] = system: DU-145
[22] = system: M14
[23] = system: HCT-15
[24] = system: SF-268
[25] = system: OVCAR-8
[26] = system: NCI/ADR-RES
[27] = system: A549
[28] = system: EKVX
[29] = system: BT-549
[30] = system: SNB-19
[31] = system: OVCAR-3
[32] = system: Hs-578T
[33] = system: CCRF-CEM
[34] = system: KM12
[35] = system: HCT-116
[36] = system: NCI-H460
[37] = system: CAKI-1
[38] = system: MDA-MB-231
[39] = system: SF-539
[40] = system: LOX IMVI
[41] = system: OVCAR-5
[42] = system: COLO 205
[43] = system: NCI-H226
[44] = system: SNB-75
[45] = system: OVCAR-4
[46] = system: Malme-3M
[47] = system: PC-3
[48] = system: SK-MEL-5
[49] = system: HT-29
[50] = system: MOLT-4
[51] = system: HOP-62
[52] = system: SK-OV-3
[53] = system: MDA-N
[54] = system: SW-620
[55] = system: T47D
[56] = system: UACC-257
[57] = system: NCI-H23
[58] = system: SK-MEL-28
[59] = system: A498

With `O=Cc1c2ccccc2n2ccc3c4ccccc4[nH]c3c12` the GI50 [1] was > 10 µM (inactive), the GI50 [2] was > 10 µM (inactive) and the GI50 [3] was > 10 µM (inactive). For the same molecule, the GI50 [4] was > 10 µM (inactive), the GI50 [5] was > 10 µM (inactive) and the GI50 [6] was > 10 µM (inactive). The GI50 [7] was > 10 µM (inactive), the GI50 [8] was > 10 µM (inactive) and the GI50 [9] was > 10 µM (inactive). The GI50 [10] was > 10 µM (inactive), the GI50 [11] was > 10 µM (inactive) and the GI50 [12] was > 10 µM (inactive). For the same molecule, the GI50 [13] was > 10 µM (inactive), the GI50 [14] was > 10 µM (inactive) and the GI50 [15] was 8.77 µM (inactive). The GI50 [16] was 5.21 µM (inactive), the GI50 [17] was > 10 µM (inactive) and the GI50 [18] was > 10 µM (inactive). The GI50 [19] was > 10 µM (inactive), the GI50 [20] was > 10 µM (inactive) and the GI50 [21] was > 10 µM (inactive). For the same molecule, the GI50 [22] was > 10 µM (inactive), the GI50 [23] was > 10 µM and the GI50 [24] was > 10 µM (inactive). For the same molecule, the GI50 [25] was > 10 µM (inactive), the GI50 [26] was > 10 µM (inactive) and the GI50 [27] was > 10 µM (inactive). For the same molecule, the GI50 [28] was 3.57 µM (inactive), the GI50 [29] was > 10 µM (inactive) and the GI50 [30] was > 10 µM (inactive). For the same molecule, the GI50 [31] was > 10 µM (inactive), the GI50 [32] was > 10 µM (inactive) and the GI50 [33] was > 10 µM (inactive). For the same molecule, the GI50 [34] was 0.344 µM (active), the GI50 [35] was > 10 µM (inactive) and the GI50 [36] was > 10 µM (inactive). For the same molecule, the GI50 [37] was > 10 µM (inactive), the GI50 [38] was > 10 µM (inactive) and the GI50 [39] was > 10 µM (inactive). For the same molecule, the GI50 [40] was > 10 µM (inactive), the GI50 [41] was > 10 µM (inactive) and the GI50 [42] was > 10 µM (inactive). The GI50 [43] was > 10 µM (inactive), the GI50 [44] was > 10 µM (inactive) and the GI50 [45] was > 10 µM (inactive). The GI50 [46] was > 10 µM (inactive), the GI50 [47] was > 10 µM (inactive) and the GI50 [48] was > 10 µM (inactive). The GI50 [49] was > 10 µM (inactive), the GI50 [50] was > 10 µM (inactive) and the GI50 [51] was > 10 µM (inactive). For the same molecule, the GI50 [52] was > 10 µM (inactive), the GI50 [53] was > 10 µM (inactive) and the GI50 [54] was > 10 µM (inactive). The GI50 [55] was > 10 µM (inactive), the GI50 [56] was > 10 µM (inactive) and the GI50 [57] was > 10 µM (inactive).
In the case of `COc1c(O)cc2ccnc3c2c1N(C)C=C3`, the GI50 [1] was > 100 µM (inactive), the GI50 [2] was > 100 µM (inactive) and the GI50 [3] was 83.8 µM (inactive). The GI50 [4] was > 100 µM (inactive), the GI50 [5] was > 100 µM (inactive) and the GI50 [6] was 55 µM (inactive). The GI50 [7] was > 100 µM (inactive), the GI50 [8] was 67.6 µM (inactive) and the GI50 [10] was > 100 µM (inactive). The GI50 [11] was > 100 µM (inactive), the GI50 [12] was > 100 µM (inactive) and the GI50 [13] was 56.1 µM (inactive). For the same molecule, the GI50 [14] was 39.4 µM (inactive), the GI50 [15] was 10.1 µM (inactive) and the GI50 [16] was > 100 µM (inactive). The GI50 [17] was > 100 µM (inactive), the GI50 [19] was > 100 µM (inactive) and the GI50 [21] was > 100 µM (inactive). The GI50 [22] was > 100 µM (inactive), the GI50 [23] was > 100 µM and the GI50 [58] was > 100 µM (inactive). The GI50 [24] was > 100 µM (inactive), the GI50 [25] was 95.1 µM (inactive) and the GI50 [26] was > 100 µM (inactive). For the same molecule, the GI50 [27] was > 100 µM (inactive), the GI50 [28] was > 100 µM (inactive) and the GI50 [29] was > 100 µM (inactive). The GI50 [30] was > 100 µM (inactive), the GI50 [31] was > 100 µM (inactive) and the GI50 [32] was > 100 µM (inactive). For the same molecule, the GI50 [34] was > 100 µM (inactive), the GI50 [35] was 67.3 µM (inactive) and the GI50 [36] was 64.6 µM (inactive). The GI50 [37] was > 100 µM (inactive), the GI50 [38] was > 100 µM (inactive) and the GI50 [40] was > 100 µM (inactive). The GI50 [41] was > 100 µM (inactive), the GI50 [42] was 94.6 µM (inactive) and the GI50 [43] was > 100 µM (inactive). The GI50 [44] was > 100 µM (inactive), the GI50 [45] was > 100 µM (inactive) and the GI50 [47] was > 100 µM (inactive). The GI50 [50] was 91.6 µM (inactive), the GI50 [59] was > 100 µM (inactive) and the GI50 [51] was > 100 µM (inactive). For the same molecule, the GI50 [52] was > 100 µM (inactive), the GI50 [53] was > 100 µM (inactive) and the GI50 [54] was 86.1 µM (inactive). The GI50 [55] was > 100 µM (inactive), the GI50 [56] was > 100 µM (inactive) and the GI50 [57] was > 100 µM (inactive).
With `CC(C)(C)OC(=O)CCC1NC(=O)[C@@H]2Cc3c([nH]c4ccccc34)C(c3ccccc3)N2C1=O` (some centres not stated) the GI50 [1] was 17.7 µM (inactive), the GI50 [2] was > 100 µM (inactive) and the GI50 [3] was 30.6 µM (inactive). For the same molecule, the GI50 [4] was 33.7 µM (inactive), the GI50 [5] was 18.2 µM (inactive) and the GI50 [6] was 19.7 µM (inactive). For the same molecule, the GI50 [7] was 21 µM (inactive), the GI50 [8] was 23.7 µM (inactive) and the GI50 [9] was 25.2 µM (inactive). The GI50 [10] was 36.9 µM (inactive), the GI50 [11] was 18.2 µM (inactive) and the GI50 [12] was 21.7 µM (inactive). For the same molecule, the GI50 [13] was 27.9 µM (inactive), the GI50 [14] was 29.4 µM (inactive) and the GI50 [15] was > 100 µM (inactive). The GI50 [16] was 32.4 µM (inactive), the GI50 [18] was 27.9 µM (inactive) and the GI50 [19] was 31.3 µM (inactive). The GI50 [20] was 21.4 µM (inactive), the GI50 [21] was 43.7 µM (inactive) and the GI50 [22] was 25.9 µM (inactive). The GI50 [23] was 33 µM, the GI50 [58] was 44.5 µM (inactive) and the GI50 [24] was 24.7 µM (inactive). For the same molecule, the GI50 [25] was 37.2 µM (inactive), the GI50 [26] was 35.5 µM (inactive) and the GI50 [27] was 31.8 µM (inactive). The GI50 [28] was 36.6 µM (inactive), the GI50 [29] was 28.6 µM (inactive) and the GI50 [30] was 34.3 µM (inactive). The GI50 [31] was 21.6 µM (inactive), the GI50 [32] was 16.7 µM (inactive) and the GI50 [34] was 24.9 µM (inactive). The GI50 [35] was 19.4 µM (inactive), the GI50 [37] was 29.2 µM (inactive) and the GI50 [38] was 19.7 µM (inactive). For the same molecule, the GI50 [40] was 18.8 µM (inactive), the GI50 [41] was 25.1 µM (inactive) and the GI50 [42] was 20.9 µM (inactive). The GI50 [43] was 30.4 µM (inactive), the GI50 [45] was 32.7 µM (inactive) and the GI50 [46] was 16.4 µM (inactive). The GI50 [47] was 19.3 µM (inactive), the GI50 [48] was 17.6 µM (inactive) and the GI50 [49] was 22.8 µM (inactive). The GI50 [50] was > 100 µM (inactive), the GI50 [59] was 36.2 µM (inactive) and the GI50 [51] was 24.2 µM (inactive). The GI50 [52] was 29.6 µM (inactive), the GI50 [53] was 19.8 µM (inactive) and the GI50 [54] was 41.7 µM (inactive). The GI50 [55] was 27.8 µM (inactive), the GI50 [56] was 21.7 µM (inactive) and the GI50 [57] was 29.1 µM (inactive).
